This is an account of results in paper PMC2976052 (The Journal of steroid biochemistry and molecular biology, 2010).

Series [1] concerns the target T1, GFP-GRER chimera (Homo sapiens, UniProt P03372). Description: cell-based.
For series [2], the target named is T1, GFP-GRER chimera. As to conditions: ER agonist treatment ref 17; cited from earlier work.
Series [3] addresses T1, GFP-GRER chimera.
For another series, the system named is parental C127 cell line. The format is cell-based, murine. As to conditions: for nuclear translocation: parental cell line; for nuclear fluorescence in parental cell line: hits retested in parental cell line.
The subject of the next series is 6020 cells. Description: Cytotoxicity measurements by image analysis.
Where [4] appears, read: estradiol dose response, five 384-well plates.
[5] abbreviates: staurosporine dose-response, 4 hours, 96-well.

Like-named read-outs stand apart in the source and are kept apart here.

T1 sequence (P03372 302-595, change not shown): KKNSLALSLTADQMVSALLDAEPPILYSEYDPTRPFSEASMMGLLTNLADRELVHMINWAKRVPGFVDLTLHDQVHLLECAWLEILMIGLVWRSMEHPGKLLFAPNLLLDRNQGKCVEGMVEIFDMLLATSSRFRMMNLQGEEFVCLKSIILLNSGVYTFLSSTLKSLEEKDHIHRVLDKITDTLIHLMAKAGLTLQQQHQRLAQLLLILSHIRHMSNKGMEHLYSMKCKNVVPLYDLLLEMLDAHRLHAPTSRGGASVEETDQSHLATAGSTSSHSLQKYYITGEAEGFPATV

Molecule `CCCc1c(-c2ccc(O)cc2)nn(-c2ccc(O)cc2)c1-c1ccc(O)cc1` [PPT, propyl pyrazoletriol] registered a concentration giving a half-maximal response (EC50) at GFP-GRER chimera [1] of 141 nM. Also, the “effect on transcription, ERE-driven gene reporter” value at GFP-GRER chimera [2] is listed as “induced transcription”.
On to `COc1cccc2c1C(=O)c1c(O)c3c(c(O)c1C2=O)C[C@@](O)(C(=O)CO)C[C@@H]3O[C@H]1C[C@H](N)[C@H](O)[C@H](C)O1` [adriamycin], for which the nuclear translocation is 97% at GFP-GRER chimera [3] (6020 (assay) cell line, hit retest in quadruplicate) and 95% in the series with parental C127 cell line (hit retest in quadruplicate).
For `C[C@]12CC[C@@H]3c4ccc(O)cc4CC[C@H]3[C@@H]1CC[C@@H]2O` [estradiol, 17-β estradiol], in the series on 6020 cells (setting [4]), the cytoplasmic area result is reported as “does not decrease” and the nuclear area entry is on record as “remains unchanged”. Further, the “nuclear fluorescence in parental cell line” value with parental C127 cell line is recorded as “did not show nuclear fluorescence”. In the series on parental C127 cell line (5 μM estradiol control), the nuclear translocation is reported as 0%.
Consider `C[C@]12CC[C@@H]3c4ccc(O)cc4CC[C@H]3[C@@H]1CCC2=O` [estrone], for which the “nuclear fluorescence in parental cell line” value in the series with parental C127 cell line is given as “did not show nuclear fluorescence”.
With `O=C(c1ccc(OCCN2CCCCC2)cc1)c1c(-c2ccc(O)cc2)sc2cc(O)ccc12` [raloxifene], the nuclear translocation with parental C127 cell line (hit retest in quadruplicate) is recorded as 0%.
Consider `CN[C@@H]1C[C@H]2O[C@@](C)([C@@H]1OC)n1c3ccccc3c3c4c(c5c6ccccc6n2c5c31)C(=O)NC4` [staurosporine], for which, in the series with 6020 cells (setting [5]), the cytoplasmic area entry is on record as “dose-dependent decrease in cytoplasmic area” and the nuclear area result is reported as “dose-dependent decrease in nuclear area”. Further, in the series with 6020 cells (staurosporine dose-response, data not shown), the “ROIs (cell number)” value is “decrease in cell number with increasing staurosporine concentration”. The “nuclear translocation result of cytotoxic compound” value at GFP-GRER chimera [3] (staurosporine dose-response for 4 hours, 96-well) was “false positive nuclear translocation results”.

Broadly, the EC50 is the midpoint of the concentration-response curve.
